Data published in US20190031613A1, “COMPOUNDS AND METHODS FOR THEIR USE IN THE TREATMENT OF MALARIA” (University of South Florida, priority 2016, published 2019).
Values after ≈ are worked out from the molar mass of the structure shown. Values belong to the molecule of their own block, whether it stands above or below them.

Tests used:
P. berghei-GFP parasites = experiment: in vivo efficacy, modified Thompson test; design: species or system mice; details: three daily doses days 3-5 PI, 0.5% aqueous HEC
Procedure: Prodrug 6d was orally tested for in vivo efficacy at four doses (0.3 mg/kg, 1.0 mg/kg, 3.0 mg/kg, and 10 mg/kg) in 0.5% aqueous HEC solution.

[1] = aqueous solubility at pH 2.5, UV-based assay; assay type: physicochemical; details: aqueous solution at pH 2.5, pH 2.5, aqueous buffer; read-out: aqueous solubility at acidic pH
From the text: Analogous to known AOCOM ether prodrugs, AOCOM iodides were used to prepare the desired prodrugs.^39 Thus, the synthesis route to the prodrugs commences with conversion of Boc-protected amino alcohols into corresponding Boc-protected aminoalkyloxycarbonyloxymethyl (amino AOCOM) iodides (FIG. 4a). Reaction of 4-quinolinols 1c′ and with the 1d′ with the Boc-protected amino AOCOM iodides, in presence of caesium carbonate, and subsequent deprotection leads to water-soluble HCl salts 6a-d (FIG. 4b). […] The assessment of the aqueous solubility at pH 7.4 was challenging due to the limited stability of the prodrug moiety at neutral pH and was not performed. […] In addition, solid material was rapidly dissolved in 0.5% aqueous HEC solution and visually inspected after 60 seconds for material dissolution.

[2] = tested on: multidrug resistant malarial strain TM90-C2B (mefloquine, chloroquine, atovaquone, pyrimethamine resistant); experiment: in vitro antimalarial activity against strain TM90-C2B; assay type: cell-based; details: internal controls of the in vitro assay
From the text: (§1) FIG. 2a depicts the synthesis of 4(1H)-quinolones 1 via Conrad-Limpach reaction^24 and conversion to first set of prodrugs (2, 3 and 4) via O-acylation.
(§2) FIG. 4a depicts the synthesis of 4(1H)-quinolones 1 into amino AOCOM ether prodrugs 6 via O-alkylation and subsequent deprotection.

[3] = tested on: multidrug resistant malarial strain W2 (pyrimethamine and chloroquine resistant); experiment: in vitro antimalarial activity against strain W2; assay type: cell-based; details: strains W2 and TM90-C2B, strain not specified
From the text: as §1, §2

physchem = details: pH 7.4, aqueous buffer

SMILES: CNCCCOC(=O)OCOc1c(-c2ccccc2C)c(C)nc2cc(OC)c(Cl)cc12.Cl [6b, 6-Chloro-7-methoxy-2-methyl-3-(o-tolyl)-4-(((3-(methylammonio)propyloxycarbonyl)oxy)methoxy)quinoline, chloride salt]
Suppression [%] day 6 PI (P. berghei-GFP parasites; 10 mg/kg PO): 52% | Day of death (avg) (P. berghei-GFP parasites; 10 mg/kg PO, untreated 13): 13 | Day of death (avg) (P. berghei-GFP parasites; 50 mg/kg PO): 13 | Suppression [%] day 6 PI (P. berghei-GFP parasites; 50 mg/kg PO): 72% | solubility [1]: > 100 µM

EC50 [2]: 18.4 µM
SMILES: O=C1C(O)=C([C@H]2CC[C@H](c3ccc(Cl)cc3)CC2)C(=O)c2ccccc21 [ATO, atovaquone, reference compound]

EC50 [2]: 0.005 µM
SMILES: C[C@H]1[C@@H](O)O[C@@H]2O[C@@]3(C)CC[C@H]4[C@H](C)CC[C@@H]1[C@@]24OO3 [DHA, dihydroartemisinin, reference compound]

in vitro antimalarial activity / EC50 values relative to 1c [3]: comparable to the EC50 values of 1c | solubility (physchem): 1.2 µM (≈ 0.463 µg/mL)
SMILES: CCOC(=O)Oc1c(-c2ccccc2C)c(C)nc2cc(OC)c(Cl)cc12 [compound 4, 6-Chloro-7-methoxy-2-methyl-3-(o-tolyl)-4-((ethoxycarbonyl)oxy)quinoline]
